In US10874856B2, “Device for treating a cutaneous ulcer” (priority 2013, dated 2020):

Tests used:
[1] = Treprostinil quantification in dermal dialysate fluid (microdialysis, HPLC-MS/MS), forearm; format: in vivo, human; conditions: post-iontophoresis
Excerpt: The use of treprostinil to impregnate a primary dressing has the advantage of making it possible to cover larger areas of skin. However, it was not obvious that the results obtained by iontophoresis of treprostinil in liquid solution form in direct contact with the patient's skin could be obtained with the embodiment in accordance with the invention.

skin blood flow [2] = conditions: 12 scleroderma patients, 250 μM, direct current, 240 mC/cm^2
[3] = Treprostinil plasma assay (HPLC-MS/MS) after iontophoresis on forearm and fingers; format: in vivo, human; conditions: after iontophoresis for 20 minutes on the forearm and for 2 hours on the fingers
Protocol: However, the fact that the patient's skin is in extended contact with an active substance is likely to involve the systemic passage of treprostinil. The Inventors thus assayed treprostinil in the plasma using high-performance liquid chromatography coupled to tandem mass spectrometry after iontophoresis for 20 minutes on the forearm and for 2 hours on the fingers.

skin blood flow [4] = conditions: rat
skin blood flow [5] = test: Continuous cathodal iontophoresis on the forearm of healthy volunteers, skin blood flow by laser Doppler imaging; format: in vivo, human; conditions: 250 μM treprostinil, cathodal iontophoresis 20 minutes
Protocol: A clinical study then included 20 healthy volunteers. These subjects received 3 concentrations of treprostinil via continuous cathodal iontophoresis on the forearm for 20 minutes and a control iontophoresis of 0.9% NaCl. Skin blood flow was quantified by laser Doppler imaging.
This effect is expressed as cutaneous vascular conductance (CVC; percentage of the baseline) recorded up to 24 hours.
To implement iontophoresis on the forearm, several iontophoresis chambers containing treprostinil liquid solution in contact with a cathode, and an anode at a distance of about 15 cm from the cathode, are placed on the inside of the forearm of each patient. […] Treprostinil liquid solution was in direct contact with the subject's skin.

[6] = Plasma treprostinil concentration in scleroderma patients post-iontophoresis; format: in vivo; conditions: human, other: cathodal iontophoresis, 250 μM, 30 minutes post-iontophoresis
[7] = test system: blood flow in the pad of the finger; test: Iontophoresis of treprostinil impregnating a primary dressing on the finger pad, laser speckle contrast imaging of blood flow; format: in vivo, human
Protocol: FIG. 3 reproduces an image obtained by laser speckle contrast imaging of blood flow in the pad of the index finger treated by iontophoresis of treprostinil impregnating a primary dressing and in the pad of the middle finger of the same hand treated by iontophoresis of 0.9% NaCl impregnating another primary dressing, in a healthy subject. The iontophoresis was carried out under the following conditions: 240 mC/cm^2, direct current. Two 7.2 cm^2 Ag—AgCl electrodes (Iogel, Iomed Inc., Salt Lake City, Utah, USA) were soaked in 1.5 ml of treprostinil or NaCl solution (double-blind).
These drug-soaked electrodes were connected to the cathode, while the anode was connected to passive electrodes attached at a distance of 10 cm. Low-voltage computer-controlled generators were used (PF 751 Perilont USB Power Supply, Perimed, Järfálla, Sweden). The voltage was recorded continuously in order to estimate the skin's resistance.
FIG. 4 reproduces an image obtained by laser speckle contrast imaging of blood flow in the pad of a ring finger treated by iontophoresis of treprostinil impregnating a primary dressing and in the pad of the middle finger of the same hand treated by iontophoresis of 0.9% NaCl, in a subject with scleroderma. The variation in blood flow is represented in same manner as in FIG. 3.

digital ulcers = conditions: cited from earlier work
[8] = test system: Raynaud's attacks and ulcers; conditions: intravenous, versus placebo; cited from earlier work

CCCCC[C@H](O)CC[C@@H]1[C@H]2Cc3cccc(OCC(=O)O)c3C[C@H]2C[C@H]1O [treprostinil]
time treprostinil present in the dermis of the forearm (average) [1]: up to 8 hours | skin blood flow (skin blood flow [2]): increase in skin blood flow | tolerance (skin blood flow [2]): well tolerated | systemic passage (plasma quantification) [3]: negligible systemic passage | cutaneous vasodilatation (skin blood flow [4]; 20 minutes of cathodal iontophoresis at 100 μA, liquid solution in direct contact with skin): caused cutaneous vasodilatation | persistence of effect after iontophoresis is over (skin blood flow [4]; cathodal iontophoresis): at least 60 minutes | local toxicity, clinically and after systematic skin biopsies (skin blood flow [4]; in vivo): No sign of local toxicity | effect on skin blood flow absent current or with anodal current (skin blood flow [4]; no current or anodal current): no effect on skin blood flow | cutaneous vascular conductance AUC80 min (skin blood flow [5]): 31,897±24,390 % BL·min | concentration at 30 min [6]: < 1.8 pg/mL | vasomotor effect on finger pad, healthy subject (FIG. 3) ([7]; healthy subject, index finger, 240 mC/cm^2, direct current): marked vasomotor effect | vasomotor effect on finger pad, subject with scleroderma (FIG. 4) ([7]; subject with scleroderma, ring finger): marked vasomotor effect

COc1ccccc1Oc1c(NS(=O)(=O)c2ccc(C(C)(C)C)cc2)nc(-c2ncccn2)nc1OCCO [bosentan]
risk of developing new ulcers (digital ulcers; RAPIDS-2 study): significantly reduced the risk | healing of preexisting ulcers (digital ulcers; in vivo): no advantage

CC#CCC(C)[C@H](O)/C=C/[C@@H]1[C@H]2C/C(=C/CCCC(=O)O)C[C@H]2C[C@H]1O (stereo partly drawn) [iloprost]
frequency of Raynaud's attacks and healing time of ulcers [8]: provided an advantage
